# According to PubChem BioAssay (NCI):
#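 Each compound was tested at five concentrations against cells in 96-well plates for 48 hours. TGI: concentration producing complete growth inhibition.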
# Key:
# Test in all cases: NCI anticancer screen, dose series, 48 h
# RPMI-8226 leukemia = test system: RPMI-8226 leukemia
# MOLT-4 leukemia = test system: MOLT-4 leukemia
# SK-OV-3 ovarian = test system: SK-OV-3 ovarian
# HCT-116 colon = test system: HCT-116 colon
# HL-60(TB) leukemia = test system: HL-60(TB) leukemia
# HT29 colon = test system: HT29 colon
# SK-MEL-5 melanoma = test system: SK-MEL-5 melanoma
# SNB-19 CNS = test system: SNB-19 CNS
# M19-MEL melanoma = test system: M19-MEL melanoma
# NCI-H23 lung = test system: NCI-H23 lung
# HOP-62 NSCLC = test system: HOP-62 NSCLC
# LOX IMVI melanoma = test system: LOX IMVI melanoma
# NCI-H522 lung = test system: NCI-H522 lung
# OVCAR-4 ovarian = test system: OVCAR-4 ovarian
# KM12 colon = test system: KM12 colon
# HCT-15 colon = test system: HCT-15 colon
# M14 melanoma = test system: M14 melanoma
# NCI-H226 lung = test system: NCI-H226 lung
# DLD-1 colon = test system: DLD-1 colon
# TK-10 renal = test system: TK-10 renal
# MALME-3M melanoma = test system: MALME-3M melanoma
# EKVX NSCLC = test system: EKVX NSCLC
# OVCAR-5 ovarian = test system: OVCAR-5 ovarian
# OVCAR-3 ovarian = test system: OVCAR-3 ovarian
# LXFL 529 NSCLC = test system: LXFL 529 NSCLC
# A549 NSCLC = test system: A549 NSCLC
# UACC-62 melanoma = test system: UACC-62 melanoma
# CCRF-CEM leukemia = test system: CCRF-CEM leukemia
# KM20L2 colon = test system: KM20L2 colon
# UACC-257 melanoma = test system: UACC-257 melanoma
# UO-31 renal = test system: UO-31 renal
# NCI-H460 lung = test system: NCI-H460 lung
# SK-MEL-28 melanoma = test system: SK-MEL-28 melanoma
# COLO 205 colon = test system: COLO 205 colon
# ACHN renal = test system: ACHN renal
# SNB-75 CNS = test system: SNB-75 CNS
# RXF 393 renal = test system: RXF 393 renal
# SF-295 CNS = test system: SF-295 CNS
# 786-0 renal = test system: 786-0 renal
# SN12C renal = test system: SN12C renal
# A498 renal = test system: A498 renal
# U251 CNS = test system: U251 CNS
# OVCAR-8 ovarian = test system: OVCAR-8 ovarian
# SF-268 CNS = test system: SF-268 CNS
# K-562 leukemia = test system: K-562 leukemia
# SNB-78 CNS = test system: SNB-78 CNS
# SF-539 CNS = test system: SF-539 CNS
# DMS 114 small cell lung = test system: DMS 114 small cell lung
# HCC-2998 colon = test system: HCC-2998 colon
# CAKI-1 renal = test system: CAKI-1 renal
# SR leukemia = test system: SR leukemia
# SW-620 colon = test system: SW-620 colon
# T-47D breast = test system: T-47D breast
# MDA-N = test system: MDA-N
# HOP-92 NSCLC = test system: HOP-92 NSCLC
# DU-145 prostate = test system: DU-145 prostate
# MDA-MB-231 breast = test system: MDA-MB-231 breast
# MDA-MB-435 = test system: MDA-MB-435
# NCI/ADR-RES ovarian = test system: NCI/ADR-RES ovarian
# SK-MEL-2 melanoma = test system: SK-MEL-2 melanoma
# MCF7 breast = test system: MCF7 breast
# PC-3 prostate = test system: PC-3 prostate
compound,measurement,setting,value
O=C1C=CC2(C=C1)C[C@H](NC(=O)C(F)(F)F)C(=O)O2,TGI,RPMI-8226 leukemia,> 100 µM
same,TGI,MOLT-4 leukemia,> 100 µM
same,TGI,SK-OV-3 ovarian,> 100 µM
same,TGI,HCT-116 colon,> 100 µM
same,TGI,HL-60(TB) leukemia,36.1 µM
same,TGI,HT29 colon,> 100 µM
same,TGI,SK-MEL-5 melanoma,> 100 µM
same,TGI,SNB-19 CNS,> 100 µM
same,TGI,M19-MEL melanoma,63.8 µM
same,TGI,NCI-H23 lung,69.4 µM
same,TGI,HOP-62 NSCLC,> 100 µM
same,TGI,LOX IMVI melanoma,51 µM
same,TGI,NCI-H522 lung,32.1 µM
same,TGI,OVCAR-4 ovarian,> 100 µM
same,TGI,KM12 colon,> 100 µM
same,TGI,HCT-15 colon,> 100 µM
same,TGI,M14 melanoma,> 100 µM
same,TGI,NCI-H226 lung,> 100 µM
same,TGI,DLD-1 colon,53.1 µM
same,TGI,TK-10 renal,> 100 µM
same,TGI,MALME-3M melanoma,40.3 µM
same,TGI,EKVX NSCLC,39.6 µM
same,TGI,OVCAR-5 ovarian,> 100 µM
same,TGI,OVCAR-3 ovarian,> 100 µM
same,TGI,LXFL 529 NSCLC,69.1 µM
same,TGI,A549 NSCLC,> 100 µM
same,TGI,UACC-62 melanoma,37.7 µM
same,TGI,CCRF-CEM leukemia,50.9 µM
same,TGI,KM20L2 colon,> 100 µM
same,TGI,UACC-257 melanoma,> 100 µM
same,TGI,UO-31 renal,> 100 µM
same,TGI,NCI-H460 lung,> 100 µM
same,TGI,SK-MEL-28 melanoma,38.3 µM
same,TGI,COLO 205 colon,> 100 µM
same,TGI,ACHN renal,> 100 µM
same,TGI,SNB-75 CNS,> 100 µM
same,TGI,RXF 393 renal,> 100 µM
same,TGI,SF-295 CNS,> 100 µM
same,TGI,786-0 renal,> 100 µM
same,TGI,SN12C renal,> 100 µM
same,TGI,A498 renal,> 100 µM
same,TGI,U251 CNS,> 100 µM
same,TGI,OVCAR-8 ovarian,> 100 µM
same,TGI,SF-268 CNS,> 100 µM
same,TGI,K-562 leukemia,65.8 µM
same,TGI,SNB-78 CNS,> 100 µM
same,TGI,SF-539 CNS,> 100 µM
same,TGI,DMS 114 small cell lung,> 100 µM
same,TGI,HCC-2998 colon,> 100 µM
same,TGI,CAKI-1 renal,> 100 µM
same,TGI,SR leukemia,> 100 µM
CC1=NN(C(=O)c2ccccc2O)C(=O)/C1=C/c1cccc([N+](=O)[O-])c1,TGI,RPMI-8226 leukemia,> 100 µM
same,TGI,MOLT-4 leukemia,> 100 µM
same,TGI,SK-OV-3 ovarian,> 100 µM
same,TGI,HCT-116 colon,> 67.7 µM
same,TGI,HL-60(TB) leukemia,> 62.9 µM
same,TGI,HT29 colon,> 100 µM
same,TGI,SW-620 colon,> 100 µM
same,TGI,SK-MEL-5 melanoma,> 100 µM
same,TGI,SNB-19 CNS,> 100 µM
same,TGI,NCI-H23 lung,> 31.8 µM
same,TGI,T-47D breast,> 100 µM
same,TGI,LOX IMVI melanoma,> 78.5 µM
same,TGI,NCI-H522 lung,54.6 µM
same,TGI,MDA-N,> 100 µM
same,TGI,HOP-92 NSCLC,> 100 µM
same,TGI,OVCAR-4 ovarian,> 100 µM
same,TGI,KM12 colon,> 100 µM
same,TGI,HCT-15 colon,> 100 µM
same,TGI,M14 melanoma,> 100 µM
same,TGI,NCI-H226 lung,> 100 µM
same,TGI,DLD-1 colon,> 100 µM
same,TGI,DU-145 prostate,> 100 µM
same,TGI,TK-10 renal,> 100 µM
same,TGI,MALME-3M melanoma,> 100 µM
same,TGI,EKVX NSCLC,> 100 µM
same,TGI,OVCAR-5 ovarian,> 100 µM
same,TGI,OVCAR-3 ovarian,> 47.5 µM
same,TGI,LXFL 529 NSCLC,> 100 µM
same,TGI,A549 NSCLC,> 100 µM
same,TGI,UACC-62 melanoma,27.1 µM
same,TGI,MDA-MB-231 breast,> 100 µM
same,TGI,CCRF-CEM leukemia,> 100 µM
same,TGI,KM20L2 colon,63.6 µM
same,TGI,UACC-257 melanoma,> 100 µM
same,TGI,NCI-H460 lung,> 100 µM
same,TGI,MDA-MB-435,> 100 µM
same,TGI,SK-MEL-28 melanoma,> 100 µM
same,TGI,COLO 205 colon,> 100 µM
same,TGI,ACHN renal,> 100 µM
same,TGI,SNB-75 CNS,> 100 µM
same,TGI,SF-295 CNS,> 100 µM
same,TGI,786-0 renal,> 100 µM
same,TGI,NCI/ADR-RES ovarian,> 100 µM
same,TGI,SN12C renal,98.7 µM
same,TGI,A498 renal,0.801 µM
same,TGI,U251 CNS,> 100 µM
same,TGI,SK-MEL-2 melanoma,> 21.9 µM
same,TGI,OVCAR-8 ovarian,> 100 µM
same,TGI,SF-268 CNS,> 100 µM
same,TGI,MCF7 breast,> 100 µM
same,TGI,K-562 leukemia,> 100 µM
same,TGI,PC-3 prostate,> 100 µM
same,TGI,SNB-78 CNS,> 100 µM
same,TGI,SF-539 CNS,5.88 µM
same,TGI,DMS 114 small cell lung,21.4 µM
same,TGI,HCC-2998 colon,> 100 µM
same,TGI,CAKI-1 renal,> 100 µM
same,TGI,SR leukemia,> 100 µM
